# In ChEMBL document CHEMBL3885861, “Open TG-GATES”:
# Species: Rattus norvegicus
# Test: Open TG-GATES - Regimen: Single
# Assay type: toxicity, organism-based, Sprague-Dawley
# Design: regimen Single, gender Male, age 6 weeks
# Details: in vivo, po, 100 mg/kg, route gavage, dose level High; for APTT / Bas / Eos / Fbg / Hb / Ht / Lym / MCH / MCHC / MCV / Mono / Neu / PT / Plat / RBC / Ret / WBC: tissue Blood; for KIDNEY_L / KIDNEY_R / KIDNEY_TOTAL: tissue Kidney; for LIVER: tissue Liver; for A/G / ALP / ALT / AST / BUN / CRE / Ca / Cl / DBIL / GLC / IP / K / LDH / Na / PL / RALB / TBIL / TC / TG / TP / gamma-GTP: tissue Plasma
structure (smiles),measurement,setting,value
OCCOCCN1CCN(C(c2ccccc2)c2ccc(Cl)cc2)CC1 (stereo unspecified) [HYDROXYZINE],TERMINAL_BW,3 h,192.6 g
same,APTT,3 h,16.4 s
same,Bas,3 h,0.2%
same,Eos,3 h,0.8%
same,Fbg,3 h,276.2 mg/dL
same,Hb,3 h,12.4 g/dL
same,Ht,3 h,38.5%
same,Lym,3 h,79.6%
same,MCH,3 h,21.5 pg
same,MCHC,3 h,32.3%
same,MCV,3 h,66.5 fL
same,Mono,3 h,2.8%
same,Neu,3 h,16%
same,PT,3 h,16 s
same,Plat,3 h,107.8 x10_4/uL
same,RBC,3 h,579.6 x10_4/ul
same,Ret,3 h,9.2%
same,WBC,3 h,66.5 x10_2/uL
same,KIDNEY_L,3 h,0.9 g
same,KIDNEY_R,3 h,0.9 g
same,KIDNEY_TOTAL,3 h,1.8 g
same,LIVER,3 h,8.5 g
same,A/G,3 h,0.9
same,ALP,3 h,1704.8 IU/L
same,ALT,3 h,45.4 IU/L
same,AST,3 h,78 IU/L
same,BUN,3 h,10.2 mg/dL
same,CRE,3 h,0.2 mg/dL
same,Ca,3 h,10.7 mg/dL
same,Cl,3 h,105.8 meq/L
same,DBIL,3 h,0.008 mg/dL
same,GLC,3 h,167.2 mg/dL
same,IP,3 h,9.5 mg/dL
same,K,3 h,4.4 meq/L
same,LDH,3 h,107.6 IU/L
same,Na,3 h,142.4 meq/L
same,PL,3 h,132.4 mg/dL
same,RALB,3 h,2.5 g/dL
same,TBIL,3 h,0.048 mg/dL
same,TC,3 h,65.8 mg/dL
same,TG,3 h,40 mg/dL
same,TP,3 h,5.4 g/dL
same,gamma-GTP,3 h,1 IU/L
same,TERMINAL_BW,6 h,190.6 g
same,APTT,6 h,16.5 s
same,Bas,6 h,0%
same,Eos,6 h,0.8%
same,Fbg,6 h,260.2 mg/dL
same,Hb,6 h,12.8 g/dL
same,Ht,6 h,39.9%
same,Lym,6 h,80.4%
same,MCH,6 h,21.2 pg
same,MCHC,6 h,32.1%
same,MCV,6 h,65.8 fL
same,Mono,6 h,2.6%
same,Neu,6 h,15.6%
same,PT,6 h,16 s
same,Plat,6 h,118.2 x10_4/uL
same,RBC,6 h,606.4 x10_4/ul
same,Ret,6 h,8.5%
same,WBC,6 h,87.3 x10_2/uL
same,KIDNEY_L,6 h,0.9 g
same,KIDNEY_R,6 h,0.9 g
same,KIDNEY_TOTAL,6 h,1.8 g
same,LIVER,6 h,7.9 g
same,A/G,6 h,0.8
same,ALP,6 h,1674.2 IU/L
same,ALT,6 h,39.8 IU/L
same,AST,6 h,78.2 IU/L
same,BUN,6 h,8.6 mg/dL
same,CRE,6 h,0.2 mg/dL
same,Ca,6 h,10.7 mg/dL
same,Cl,6 h,106.8 meq/L
same,DBIL,6 h,0.01 mg/dL
same,GLC,6 h,180.8 mg/dL
same,IP,6 h,9.7 mg/dL
same,K,6 h,4.2 meq/L
same,LDH,6 h,64.2 IU/L
same,Na,6 h,141.8 meq/L
same,PL,6 h,121.8 mg/dL
same,RALB,6 h,2.4 g/dL
same,TBIL,6 h,0.062 mg/dL
same,TC,6 h,63.8 mg/dL
same,TG,6 h,28 mg/dL
same,TP,6 h,5.3 g/dL
same,gamma-GTP,6 h,1 IU/L
